Like-named read-outs stand apart in the source and are kept apart here.
Tests used:
[1] = tested on: HaCaT cells; experiment: Cell viability assay (resazurin), cytotoxicity in non-malignant cells; format: cell-based, human; conditions: Homo sapiens, HaCaT, read-out: IC50 HaCaT (Non-malignant keratinocyte)
Procedure: (§1) Cells were grown in Dulbecco's Modified Eagle's Medium (DMEM) supplemented with 100 U/mL penicillin, 100 µg/mL streptomycin and 10% fetal bovine serum. HL60 cell line (acute myeloid leukaemia, AML) was obtained from ATCC. It was cultured in IMDM medium supplemented with 100 U/mL penicillin, 100 µg/mL streptomycin and 10% fetal bovine serum. U937 (AML) and Jurkat cells (ALL) were obtained from DMSZ, Braunschweig, Germany, and ATCC, respectively. They were cultivated in RPMI medium, supplemented with 100 U/mL penicillin, 100 µg/mL streptomycin and 10% fetal bovine serum. […] All cell lines were cultured at 37 ° C with 5% CO2 in a humidified incubator. Cell culture reagents were purchased from Biowest. Exponentially growing cells (3000-6000 cells per well) were seeded in 96-well plates. After 24 hours, cells were treated with the drugs for 72 hours. The cell viability was then estimated with the resazurin assay, a colorimetric technique based on the capability of viable cells to reduce the blue reagent resazurin to the pink-soluble product resorufin. The amount of resorufin produced is proportional to the number of viable cells. Briefly, cells were washed once with phosphate buffered saline (PBS) and 150 µL resazurin (20 µg/mL in medium) was added to each well. The plates were incubated for 3 hours at 37 °C, 5% CO2, and finally optical densities were measured at 540 and 620 nm with a multiwell plate spectrophotometer reader (Multiskan EX Labsystems). Cell viability was calculated as a percentage compared to non-treated cells. The results were expressed as the means ± standard error of the mean (SEM). All data are from at least three independent experiments.

[2] = tested on: Jurkat (Acute lymphoblastic leukaemia); experiment: Antileukemic activity, cell viability (CCK-8 Cell Counting Kit); format: cell-based; conditions: Homo sapiens, 18 h incubation, compounds 0 - 100 µM, read-out: IC50 Cancer cells Jurkat (Acute lymphoblastic leukaemia)
Procedure: (§2) HaCaT cells (human keratinocytes, reference control), A549 (human lung adenocarcinoma cells), MeWo (human melanoma cells) and T24 (human bladder cancer cells) were purchased from Cell Lines Service (CLS). Cells were grown in Dulbecco's Modified Eagle's Medium (DMEM) supplemented with 100 U/mL penicillin, 100 µg/mL streptomycin and 10% fetal bovine serum. HL60 cell line (acute myeloid leukaemia, AML) was obtained from ATCC. It was cultured in IMDM medium supplemented with 100 U/mL penicillin, 100 µg/mL streptomycin and 10% fetal bovine serum. U937 (AML) and Jurkat cells (ALL) were obtained from DMSZ, Braunschweig, Germany, and ATCC, respectively. They were cultivated in RPMI medium, supplemented with 100 U/mL penicillin, 100 µg/mL streptomycin and 10% fetal bovine serum. OPM-2 cell line (MM), was obtained from DMSZ, Braunschweig, Germany and cultured in RPMI medium supplemented with 100 U/mL penicillin, 100 µg/mL streptomycin, 10% fetal bovine serum and 1X GlutaMAXTM. All cell lines were cultured at 37 ° C with 5% CO2 in a humidified incubator. Cell culture reagents were purchased from Biowest.
(§3) For the leukemic cell lines, the CCK-8 Cell Counting Kit (Dojindo Molecular Technologies) was used according to manufacturers instructions. Briefly, 50.000 cells were seeded in each well of a 96 well plate, and they were treated with increased amounts (0 - 100 µM) of each of the compounds, and incubated for 18 h at 37 °C, 5% CO2. After this period, 7 µl of the CCK-8 reagent were added to each well, and cells were further incubated for 2 h at 37 °C, 5% CO2. OD at 450 nm was obtained using a MultiskanTM GO microplate reader (Thermo Fisher Scientific, Waltham, MA, EE.UU). Cell viability in each condition was normalized to the measurement obtained in the non treated samples (100%), and were represented as average ± standard error of the mean (SEM).

[3] = tested on: HL60 (Acute myeloid leukaemia); experiment: as above; format: cell-based; conditions: Homo sapiens, HL-60; 18 h incubation, compounds 0 - 100 µM; read-out: IC50 Cancer cells HL60 (Acute myeloid leukaemia)
Procedure: as §2, §3

[4] = tested on: OPM-2 (Multiple myeloma); experiment: as above; format: cell-based; conditions: Homo sapiens, 18 h incubation, compounds 0 - 100 µM, read-out: IC50 Cancer cells OPM-2 (Multiple myeloma)
Procedure: as §2, §3

[5] = tested on: U937 (Acute myeloid leukaemia); experiment: as above; format: cell-based; conditions: Homo sapiens, U-937; 18 h incubation, compounds 0 - 100 µM; read-out: IC50 Cancer cells U937 (Acute myeloid leukaemia)
Procedure: as §2, §3

[6] = tested on: MeWo (human melanoma cells); experiment: Cell viability assay (resazurin), cytotoxic activity against solid tumours; format: cell-based; conditions: for IC50: Homo sapiens, MeWo, read-out: IC50 MeWo (Melanoma; BRAF WT); for S.I. MeWo (Selectivity Index): IC50 HaCaT divided by IC50 MeWo, mean of independent experiments
Procedure: as §1, with “The plates were incubated for 3 hours at 37 °C, 5% CO2, and finally optical densities were measured at 540 and 620 nm with a multiwell plate spectrophotometer reader (Multiskan EX Labsystems).” left out, “experiments. The selectivity index (S.I.) values were calculated over each cancer cell line as the mean of the IC50 value in the non-malignant cell line (HaCaT) by the IC50 in the respective cancer cell line obtained in each independent experiment.” for “experiments.”

[7] = tested on: T24 (human bladder cancer cells); experiment: as above; format: cell-based; conditions: for IC50: Homo sapiens, read-out: IC50 T24 (Bladder cancer); for S.I. T24 (Selectivity Index): IC50 HaCaT divided by IC50 T24, mean of independent experiments
Procedure: as §1, with “The plates were incubated for 3 hours at 37 °C, 5% CO2, and finally optical densities were measured at 540 and 620 nm with a multiwell plate spectrophotometer reader (Multiskan EX Labsystems).” left out, “experiments. The selectivity index (S.I.) values were calculated over each cancer cell line as the mean of the IC50 value in the non-malignant cell line (HaCaT) by the IC50 in the respective cancer cell line obtained in each independent experiment.” for “experiments.”

[8] = tested on: A549 (human lung adenocarcinoma cells); experiment: as above; format: cell-based; conditions: for IC50: Homo sapiens, read-out: IC50 A549 (Lung adenocarcino ma); for S.I. A549 (Selectivity Index): IC50 HaCaT divided by IC50 A549, mean of independent experiments
Procedure: as §1, with “The plates were incubated for 3 hours at 37 °C, 5% CO2, and finally optical densities were measured at 540 and 620 nm with a multiwell plate spectrophotometer reader (Multiskan EX Labsystems).” left out, “experiments. The selectivity index (S.I.) values were calculated over each cancer cell line as the mean of the IC50 value in the non-malignant cell line (HaCaT) by the IC50 in the respective cancer cell line obtained in each independent experiment.” for “experiments.”

[9] = 72 h treatment, resazurin assay, mean ± SEM
[10] = A549, 72 h treatment, resazurin assay, mean ± SEM

| IC50 [2] | IC50 [3] | IC50 [4] | IC50 [5] | SMILES | IC50 [1, 9] | IC50 [6, 9] | S.I. MeWo (Selectivity Index) [6] | IC50 [7, 9] | S.I. T24 (Selectivity Index) [7] | IC50 [8, 10] | S.I. A549 (Selectivity Index) [8] | IC50 ([1]; 72 h) | IC50 ([6]; 72 h) | IC50 ([7]; 72 h) | IC50 ([8]; A549, 72 h) |
| --- | --- | --- | --- | --- | --- | --- | --- | --- | --- | --- | --- | --- | --- | --- | --- |
| 17.8 µM | ~13 µM | 20.1 µM | ~26.7 µM | CCS[C@@H]1O[C@H](COC(C)=O)[C@@H](OC(C)=O)[C@H](N=C=S)[C@H]1OC(C)=O [Compound 14β, Ethyl 2,4,6-tri-O-acetyl-3-isothiocyanato-1,3-dideoxy-1-thio-β-D-glucopyranoside] | 72.2 ± 13.2 µM | 49.9 ± 8.5 µM | 1.5±0.2 | 42 ± 5.7 µM | 1.7±0.2 | 45.1 ± 6.8 µM | 1.6±0.1 | – | – | – | – |
| 89.5 µM | ~25.3 µM | 52.4 µM | 45.6 µM | CC[S@+]([O-])[C@@H]1O[C@H](COC(C)=O)[C@@H](OC(C)=O)[C@H](N=C=S)[C@H]1OC(C)=O [(SS)-17β, Ethyl 2,4,6-tri-O-acetyl-3-isotiocianato-1,3-dideoxy-1[(S)-sulfinyl]-β-D-glucopyranose] | 85.2 ± 12.7 µM | 51.5 ± 7.9 µM | 1.7±0.0 | 42.3 ± 3.2 µM | 2.0±0.2 | 56.4 ± 6.6 µM | 1.5±0.1 | – | – | – | – |
| 128 µM | 36.9 µM | 64.9 µM | ~51.2 µM | CC(=O)OCC1OC([S+](C)[O-])C(OC(C)=O)C(N=C=S)C1OC(C)=O [(SS)-16β, Methyl 2,4,6-tri-O-acetyl-3-isothiocyanato-1,3-dideoxy-1-(S)-sulfinyl-β-D-glucopyranoside] | > 100 µM | 122 ± 20.7 µM | – | 94.2 ± 13.2 µM | – | 109 ± 23.7 µM | – | – | – | – | – |
| 46.3 µM | 7.4 µM | 19.6 µM | ~47.3 µM | CC(=O)OC[C@H]1O[C@H]([S@+]([O-])c2ccccc2)[C@H](OC(C)=O)[C@@H](N=C=S)[C@@H]1OC(C)=O [(RS)-18α, Phenyl 2,4,6-tri-O-acetyl-3-isothiocyanato-1,3-dideoxy-1[(R)-sulfinyl]-α-D-glucopyranose] | 51 ± 17.6 µM | 55.3 ± 7.6 µM | 1.0±0.4 | 48.6 ± 8.6 µM | 1.3±0.5 | 55.7 ± 8.4 µM | 1.1±0.4 | – | – | – | – |
| 12.5 µM | 9.7 µM | 17 µM | 25.1 µM | CCS[C@H]1O[C@H](COC(C)=O)[C@@H](OC(C)=O)[C@H](N=C=S)[C@H]1OC(C)=O [Compound 14α, Ethyl 2,4,6-tri-O-acetyl-3-isothiocyanato-1,3-dideoxy-1-thio-α-D-glucopyranoside] | 51.3 ± 1.8 µM | 46.4 ± 7.6 µM | 1.2±0.2 | 40.7 ± 6.9 µM | 1.4±0.2 | 40.6 ± 9 µM | 1.5±0.3 | – | – | – | – |

| SMILES | IC50 [2] | IC50 [3] | IC50 [4] | IC50 [5] | IC50 [1, 9] | IC50 [6, 9] | S.I. MeWo (Selectivity Index) [6] | IC50 [7, 9] | S.I. T24 (Selectivity Index) [7] | IC50 [8, 10] | S.I. A549 (Selectivity Index) [8] | IC50 ([1]; 72 h) | IC50 ([6]; 72 h) | IC50 ([7]; 72 h) | IC50 ([8]; A549, 72 h) |
| --- | --- | --- | --- | --- | --- | --- | --- | --- | --- | --- | --- | --- | --- | --- | --- |
| CCS(=O)(=O)[C@@H]1O[C@H](COC(C)=O)[C@@H](OC(C)=O)[C@H](N=C=S)[C@H]1OC(C)=O [Compound 20β, Ethyl 2,4,6-tri-O-acetyl-3-isothiocyanato-1,3-dideoxy-1-sulfonyl-β-D-glucopyranose] | 45.1 µM | 19.8 µM | 37.2 µM | 34.7 µM | – | – | 1.6±0.3 | – | 2.1±0.2 | – | 1.9±0.3 | 84.9 ± 15.2 µM | 53.6 ± 7.4 µM | 39.3 ± 3.7 µM | 47.9 ± 10 µM |
| C[S+]([O-])CCCN=C=S (racemic) [rac-5, 1-isothiocyanato-3-(methylsulfinyl)propane, reference compound] | 13.7 µM | 11 µM | 19.4 µM | 8.5 µM | – | – | 1.0±0.1 | – | 2.9±0.3 | – | 1.8±0.3 | 33 ± 5.8 µM | 32.8 ± 5.8 µM | 12.2 ± 2.9 µM | 20.7 ± 5.7 µM |
| CC(=O)OC[C@H]1O[C@@H](S(=O)(=O)c2ccccc2)[C@H](OC(C)=O)[C@@H](N=C=S)[C@@H]1OC(C)=O [Compound 21β, Phenyl 2,4,6-tri-O-acetyl-3-isothiocyanato-1,3-dideoxy-1-sulfonyl-β-D-glucopyranose] | 24.9 µM | 13.1 µM | 19.7 µM | ~48.3 µM | – | – | 1.5±0.3 | – | 1.9±0.4 | – | 1.7±0.4 | 55.7 ± 2.4 µM | 43.5 ± 9.4 µM | 36.4 ± 9.3 µM | 37.5 ± 8.6 µM |
| CCS(=O)(=O)[C@H]1O[C@H](COC(C)=O)[C@@H](OC(C)=O)[C@H](N=C=S)[C@H]1OC(C)=O [Compound 20α, Ethyl 2,4,6-tri-O-acetyl-3-isothiocyanato-1,3-dideoxy-1-sulfonyl-α-D-glucopyranose] | 30.3 µM | 19.9 µM | 71.9 µM | 74 µM | – | – | 1.9±0.2 | – | 2.9±0.8 | – | 2.1±0.1 | > 100 µM | 95.3 ± 44.8 µM | 55.8 ± 6 µM | 92.4 ± 25.7 µM |

Reference: patent publication EP4534542A1, “THIOSUGAR BASED ISOTHIOCYANATES AND USES THEREOF” (Universidad de Sevilla, priority 2023, dated 2025)
